# Measured values: patent US20240254118A1, “PRMT5 INHIBITORS AND USES THEREOF” (Gilead Sciences, Inc., priority 2022, published 2024)
# Legend:
# [1] = test system: HCT116 MTAP-deleted cells; test: Cell viability assay (CellTiter-Glo, 7 days), HCT116 MTAP-deleted; conditions: Homo sapiens, HCT-116, 168 h
# [2] = test system: SDMA signal (PRMT5 inhibition) in HCT116 MTAP-deleted cells; test: Symmetric di-methyl arginine image-based high content screen assay (SDMA assay), HCT116 MTAP-deleted; assay type: cell-based; conditions: SDMA assay; for EC50: Homo sapiens, HCT-116, 72 h, 3 days of treatment, cell line not given, taken as HCT116 MTAP-deleted, read-out: EC50 (SDMA assay)
# In short: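 HCT116 MTAP-deleted cells treated with compound until Day 3, then formalin-fixed, permeabilized and immunostained for SDMA, with DAPI nuclear counterstain. Imaged by high-content microscopy; SDMA read-out is mean Alexa 488 intensity per DAPI-defined cell, reflecting PRMT5 inhibition.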
# [3] = taken as HCT116 WT versus MTAP-deleted
Compound,CC50 [1],EC50 [2],"EC50 selectivity (SDMA assay) [2, 3]",EC50 selectivity (SDMA assay) ([2]; taken as HCT116 WT vs MTAP-deleted)
"CN(C(=O)C1(C)CC1)N(Cc1ccc(C(F)(F)F)cn1)C(=O)c1ccc2nc(N)c3cnn(C)c3c2c1 [Example 51, 4-amino-N′,1-dimethyl-N′-(1-methylcyclopropanecarbonyl)-N-[[5-(trifluoromethyl)-2-pyridyl]methyl]pyrazolo[4,3-c]quinoline-8-carbohydrazide]",< 100 nM,1 to 5 nM,260,
"[2H]C([2H])([2H])n1ncc2c(N)nc3ccc(C(=O)N(Cc4ccc(C(F)(F)F)cn4)N(C)C(=O)C4CC4)cc3c21 [Example 257, 4-amino-N′-(cyclopropanecarbonyl)-N′-methyl-1-(methyl-d3)-N-((5-(trifluoromethyl)pyridin-2-yl)methyl)-1H-pyrazolo[4,3-c]quinoline-8-carbohydrazide]",< 100 nM,< 1 nM,213,
"Cn1ncc2c(N)nc3ccc(C(=O)N(Cc4nc5cc(Cl)ccc5n4C)N4CCCCC4=O)cc3c21 [Example 211, 4-amino-N-((5-chloro-1-methyl-1H-benzo[d]imidazol-2-yl)methyl)-1-methyl-N-(2-oxopiperidin-1-yl)-1H-pyrazolo[4,3-c]quinoline-8-carboxamide]",< 100 nM,< 1 nM,142,
"COC12CC(C(=O)N(C)N(Cc3ccc(C(F)(F)F)cn3)C(=O)c3ccc4nc(N)c5cnn(C)c5c4c3)(C1)C2 [Example 187, 4-amino-N′-(3-methoxybicyclo[1.1.1]pentane-1-carbonyl)-N′,1-dimethyl-N-[[5-(trifluoromethyl)-2-pyridyl]methyl]pyrazolo[4,3-c]quinoline-8-carbohydrazide]",< 100 nM,1 to 5 nM,50,
"CN1CCN(N(Cc2ccc(C(F)(F)F)cn2)C(=O)c2cc3c(cc2Cl)nc(N)c2cnn(C)c23)C1=O [Example 84, 4-Amino-7-chloro-1-methyl-N-(3-methyl-2-oxo-imidazolidin-1-yl)-N-[[5-(trifluoromethyl)-2-pyridyl]methyl]pyrazolo[4,3-c]quinoline-8-carboxamide]",< 100 nM,1 to 5 nM,26,
"CC(=O)N(C)N(Cc1ccc2oc(C)nc2c1)C(=O)c1ccc2nc(N)c3cnn(C)c3c2c1 [Example 334, N′-acetyl-4-amino-N′,1-dimethyl-N-((2-methylbenzo[d]oxazol-5-yl)methyl)-1H-pyrazolo[4,3-c]quinoline-8-carbohydrazide]",100 to 1000 nM,1 to 5 nM,178,
"CN(C(=O)CC1CC1)N(Cc1ccc(C(F)(F)F)cn1)C(=O)c1ccc2nc(N)c3cnn(C)c3c2c1 [Example 399, 4-amino-N′-(2-cyclopropylacetyl)-N′,1-dimethyl-N-[[5-(trifluoromethyl)-2-pyridyl]methyl]pyrazolo[4,3-c]quinoline-8-carbohydrazide]",< 100 nM,1 to 5 nM,,358
"CN(C(=O)C1CC1)N(Cc1ccc(Cl)cc1F)C(=O)c1ccc2nc(N)c3cnn(C)c3c2c1 [Example 155, 4-amino-N-(4-chloro-2-fluorobenzyl)-N′-(cyclopropanecarbonyl)-N′,1-dimethyl-1H-pyrazolo[4,3-c]quinoline-8-carbohydrazide]",< 100 nM,< 1 nM,94,
"[2H]C([2H])(c1ccc(C(F)(F)F)cc1F)N(C(=O)c1ccc2nc(N)c3cnn(C)c3c2c1)N(C)C(C)=O [Example 264, N′-acetyl-4-amino-N-((2-fluoro-4-(trifluoromethyl)phenyl)methyl-d2)-N′,1-dimethyl-1H-pyrazolo[4,3-c]quinoline-8-carbohydrazide]",< 100 nM,< 1 nM,281,
"[2H]C([2H])([2H])N(C(=O)C1CC1)N(Cc1ncc(C(F)(F)F)cc1F)C(=O)c1ccc2nc(N)c3cnn(C([2H])([2H])[2H])c3c2c1 [Example 278, 4-amino-N′-(cyclopropanecarbonyl)-N-((3-fluoro-5-(trifluoromethyl)pyridin-2-yl)methyl)-N′,1-bis(methyl-d3)-1H-pyrazolo[4,3-c]quinoline-8-carbohydrazide]",< 100 nM,< 1 nM,121,
"CN(C(=O)C1CC1)N(Cc1ccc(-c2cnn(C(F)(F)F)c2)cc1)C(=O)c1ccc2nc(N)c3cnn(C)c3c2c1 [Example 374, 4-amino-N′-(cyclopropanecarbonyl)-N′,1-dimethyl-N-[[4-[1-(trifluoromethyl)pyrazol-4-yl]phenyl]methyl]pyrazolo[4,3-c]quinoline-8-carbohydrazide]",< 100 nM,1 to 5 nM,125,
"CCC(=O)N(CC)N(Cc1ccc(C(F)(F)F)cn1)C(=O)c1cc2c(cc1F)nc(N)c1cnn(C)c12 [Example 280, 4-amino-N′-ethyl-7-fluoro-1-methyl-N′-propionyl-N-((5-(trifluoromethyl)pyridin-2-yl)methyl)-1H-pyrazolo[4,3-c]quinoline-8-carbohydrazide]",< 100 nM,1 to 5 nM,31,
"CN(CC1CC1)N(Cc1ccc(C(F)(F)F)cn1)C(=O)c1cc2c(cc1F)nc(N)c1cnn(C)c12 [Example 174, 4-amino-N′-(cyclopropylmethyl)-7-fluoro-N′,1-dimethyl-N-[[5-(trifluoromethyl)-2-pyridyl]methyl]pyrazolo[4,3-c]quinoline-8-carbohydrazide]",< 100 nM,< 1 nM,24,
"CN(C(=O)c1ncco1)N(Cc1ccc(C(F)(F)F)cc1)C(=O)c1ccc2nc(N)c3cnn(C)c3c2c1 [Example 219, N′-(4-amino-1-methyl-1H-pyrazolo[4,3-c]quinoline-8-carbonyl)-N-methyl-N′-(4-(trifluoromethyl)benzyl)oxazole-2-carbohydrazide]",< 100 nM,< 1 nM,9,
"CC(=O)N(C)N(Cc1ccc(C(F)(F)F)cn1)C(=O)c1ccc2nc(N)c3cnccc3c2c1 [Example 72, N′-acetyl-5-amino-N′-methyl-N-((5-(trifluoromethyl)pyridin-2-yl)methyl)benzo[c][2,7]naphthyridine-9-carbohydrazide]",100 to 1000 nM,1 to 5 nM,142,
"CCN(C(=O)C1CC1)N(Cc1ccc(C(F)(F)F)cn1)C(=O)c1ccc2nc(N)c3cnn(C)c3c2c1 [Example 288, 4-amino-N′-(cyclopropanecarbonyl)-N′-ethyl-1-methyl-N-((5-(trifluoromethyl)pyridin-2-yl)methyl)-1H-pyrazolo[4,3-c]quinoline-8-carbohydrazide]",< 100 nM,< 1 nM,267,
"CN(C(=O)C1CC1)N(Cc1ccc(C(F)F)cc1F)C(=O)c1ccc2nc(N)c3cnn(C)c3c2c1 [Example 324, 4-amino-N′-(cyclopropanecarbonyl)-N-(4-(difluoromethyl)-2-fluorobenzyl)-N′,1-dimethyl-1H-pyrazolo[4,3-c]quinoline-8-carbohydrazide]",< 100 nM,< 1 nM,111,
"CC(=O)N(C)N(Cc1ccc(C(F)(F)F)cn1)C(=O)c1cc2c3c(c(N)nc2cc1F)COC3 [Example 70, N′-acetyl-4-amino-7-fluoro-N′-methyl-N-[[5-(trifluoromethyl)-2-pyridyl]methyl]-1,3-dihydrofuro[3,4-c]quinoline-8-carbohydrazide]",< 100 nM,1 to 5 nM,11,
"Cn1ncc2c(N)nc3cc(F)c(C(=O)N(Cc4ccc(C(F)(F)F)cn4)N4CCOCC4)cc3c21 [Example 142, 4-amino-7-fluoro-1-methyl-N-morpholino-N-((5-(trifluoromethyl)pyridin-2-yl)methyl)-1H-pyrazolo[4,3-c]quinoline-8-carboxamide]",< 100 nM,< 1 nM,32,
"Cn1ncc2c(N)nc3ccc(C(=O)N(Cc4ccc(C(F)(F)F)cn4)N4CCCC4=O)cc3c21 [Example 26, 4-amino-1-methyl-N-(2-oxopyrrolidin-1-yl)-N-[[5-(trifluoromethyl)-2-pyridyl]methyl]pyrazolo[4,3-c]quinoline-8-carboxamide]",< 100 nM,1 to 5 nM,85,
"CC(=O)N(C)N(Cc1ccc(C(F)(F)F)cn1)C(=O)c1ccc2nc(N)c3c(cnn3C)c2c1 [Example 152, N′-acetyl-4-amino-N′,3-dimethyl-N-((5-(trifluoromethyl)pyridin-2-yl)methyl)-3H-pyrazolo[3,4-c]quinoline-8-carbohydrazide]",100 to 1000 nM,1 to 5 nM,128,
"CN(C(=O)C1CC(F)(F)C1)N(Cc1ccc(C(F)(F)F)cn1)C(=O)c1ccc2nc(N)c3cnn(C)c3c2c1 [Example 99, 4-amino-N′-(3,3-difluorocyclobutane-1-carbonyl)-N′,1-dimethyl-N-((5-(trifluoromethyl)pyridin-2-yl)methyl)-1H-pyrazolo[4,3-c]quinoline-8-carbohydrazide]",< 100 nM,1 to 5 nM,269,
"CN(C)N(Cc1ccc(C(F)(F)F)cn1)C(=O)c1ccc2nc(N)c3cscc3c2c1 [Example 73, 4-amino-N′,N′-dimethyl-N-((5-(trifluoromethyl)pyridin-2-yl)methyl)thieno[3,4-c]quinoline-8-carbohydrazide]",100 to 1000 nM,> 5 nM,39,
